{
  "source": "patent US7053194B2",
  "about": "“Compositions and methods for p53-mediated repression of gene expression” (Fox Chase Cancer Center, priority 1999, dated 2006)",
  "type_in_all_cases": "cell-based, human",
  "key": {"[1]": {"tested_on": "MCF7 breast carcinoma cells", "assay": "Western analysis of p53 and survivin protein after doxorubicin", "conditions": "twenty-four hour treatment", "protocol": "(§1) MCF-7 cells were maintained in RPMI-1640 supplemented with 10% fetal bovine serum and 100 units/ml of penicillin and streptomycin. The human melanoma cell line CaCl, and the derivative clone expressing the HPV E6 gene, were cultured as described (Ahn et al., Oncogene). The human osteosarcoma cell lines Saos-2 and U2-OS (kindly provided by Peter Adams, Fox Chase Cancer Center), the murine p21 knock-out fibroblasts (kindly provided by James Sherley, MIT) and the human lung adenocarcinoma cell line H1299 were cultured in DMEM supplemented with 10% fetal bovine serum and 100 units/ml of penicillin and streptomycin. […] For treatment with ultra-violet light, cells were irradiated with 0–10 J/m2 (as noted) of UV-C with a Spectroline X series ultraviolet lamp, and output was monitored with a traceable UV light meter (Fisher Scientific). For drug treatment, cells were treated with 0.5ug/ml adriamycin (doxorubicin, Sigma), or dilution vehicle alone, for twenty-four hours. p53 induction was monitored by western analysis of 100 ug protein as described (Murphy et al., Genes & Devel. 10:2971–2980, 1996), using 0.1ug/ml DO-1 (Ab-6, Calbiochem) or 421 (Ab-1, Calbiochem.\n(§2) Western analysis was performed essentially as described (Murphy et al., 1999). […] Protein concentrations were determined using the Bio-Rad Dc Protein Assay (Bio-Rad). […]"}, "[2]": {"tested_on": "CaCl and CaCl/E6", "assay": "Western analysis of survivin after doxorubicin in melanoma line with or without HPV E6", "conditions": "CaCl versus CaCl/E6, doxorubicin treatment", "protocol": "as §1, §2"}, "[3]": {"tested_on": "MCF-7 cells", "assay": "Northern analysis of stathmin mRNA after adriamycin treatment", "conditions": "MCF-7, adriamycin 0.5 ug/ml", "protocol": "(§3) Sub-confluent cultures of MCF 7 and A2780 cells were treated with 100 nM trichostatin A (TSA, Sigma)for 2 hours, followed by incubation with 0.5 ug/ml adriamycin (doxorubicin, Sigma) for the indicated timepoints. Va15 cells grown at 39 degrees were treated with 100 nM TSA for two hours, followed by temperature shift to 32 degrees for 12 hours. p53 induction was monitored by western analysis of 100 ug protein as described (Murphy et al., Genes & Devel. 10:2971–2980, 1996), using 0.1ug/ml DO-1 (Ab-6, Calbiochem) or 421 (Ab-1, Calbiochem). MDM2 induction was monitored using the monoclonal antibody 2A10, kindly provided by Arnold Levine (Rockefeller University). For UV treatments, cells were irradiated with 4 J/m2 of UV-C with a Spectroline X series ultraviolet lamp, and output was monitored with a traceable UV light meter (Fisher Scientific). For ALLN treatment, MCF-7 cells were treated with 50 uM ALLN (calpain I inhibitor, Sigma) made in DMSO (dimethyl sulfoxide, Sigma) or with DMSO alone for 2 hours prior to harvesting.\n(§4) Total RNA was isolated from cells using CsC1 purification (Murphy et al., Genes & Devel. 10:2971–2980, 1996) or using Trizol, as per the manufacturer (Gibco/BRL). Northern analyses were performed as described (Murphy et al., Genes & Devel. 10:2971–2980, 1996). Probes for Northerns were radio labeled using random primers (Prime-It-II, Stratagene) and α^32P dCTP (NEN). Autoradiographs were quantitated using NIH image software. The average values from three independent experiments were plotted onto bar graphs following normalization to GAPDH.\n(§5) To extend these observations, the human tumor derived cell lines MCF7 (breast carcinoma)and A2780 (ovarian carcinoma) were analyzed following treatment with adriamycin to activate the endogenous, wild type p53 protein. Because of difficulties detecting human Map4 message, we analyzed the mRNA levels of stathmin (also called oncoprotein 18). We recently identified stathmin as a p53-repressed gene. A time course of treatment of MCF-7 cells with the DNA-damaging agent adriamycin (doxorubicin, DOX) results in approximately 30% reduction of stathmin RNA levels after 8 hours and 75% reduction after 24 hours. We chose to focus further on the 12 hour timepoint of adriamycin treatment, where 50% repression of stathmin was evident, in order to limit the toxicity sometimes associated with TSA (Yoshida et al., J Biol Chem 265:17174–17179, 1990). […] The results of three independent experiments indicate that the repression of stathmin expression evident after 12 hours of adriamycin treatment is completely abrogated by incubation with TSA. In contrast, neither the post-translational stabilization of p53 by adriamycin (DOX) nor the induction of the p53 response genes mdm2 and p21/waf1 were affected by TSA. […] We have performed identical experiments in A2780 cells (ovarian carcinoma, wt p53)."}, "[4]": {"tested_on": "A2780 cells", "assay": "Northern analysis of stathmin mRNA after adriamycin treatment", "conditions": "A2780, adriamycin, 12 hours, data not shown", "protocol": "as §3, §4, §5"}},
  "data": [
    {"compound": "COc1cccc2c1C(=O)c1c(O)c3c(c(O)c1C2=O)C[C@@](O)(C(=O)CO)C[C@@H]3O[C@H]1C[C@H](N)[C@H](O)[C@H](C)O1", "note": "[adriamycin, doxorubicin]", "values": [
      {"measurement": "decrease of survivin protein levels", "setting": "[1]", "result": "3–4 fold"},
      {"measurement": "induction of p53 expression", "setting": "[1]", "result": 4, "unit": "fold"},
      {"measurement": "survivin protein levels", "setting": "[2]", "result": "down-regulation of survivin protein levels only in parental CaCl cells"},
      {"measurement": "reduction of stathmin RNA levels", "setting": "[3]; 8 hours", "result": "approximately 30%"},
      {"measurement": "repression of stathmin", "setting": "[3]; 12 hours", "result": 50, "unit": "%"},
      {"measurement": "reduction of stathmin RNA levels", "setting": "[3]; 24 hours", "result": "~75", "unit": "%"},
      {"measurement": "repression of stathmin expression", "setting": "[4]", "result": "approximately 50%"}
    ]}
  ]
}
